In ChEMBL document CHEMBL1157453, “Chrobisiamone A, a new bischromone from Cassia siamea and a biomimetic transformation of 5-acetonyl-7-hydroxy-2-methylchromone into cassiarin A” (Bioorg Med Chem Lett, 2008):
In brackets after ≈: the same amount, converted by molar mass.

Test system: Plasmodium falciparum
Assay: Antiplasmodial activity against Plasmodium falciparum 3D7
Format: functional, organism-based

## CC(=O)Cc1cc(O)cc2oc(C)cc(=O)c12
  IC50: 4.5 µg/mL (≈ 19.4 µM)

## CC(=O)Cc1cc(O)cc2c1C(=O)CC(C)(Cc1cc(=O)c3c(CC(C)=O)cc(O)cc3o1)O2 (stereo not drawn) [CHROBISIAMONE A]
  IC50: 2.6 µg/mL (≈ 5.6 µM)

## Cc1cc2cc(=O)cc3oc(C)cc(o1)c23 [ANHYDROBARAKOL]
  IC50: 7.8 µg/mL (≈ 36.4 µM)
